In PubChem BioAssay (NCI):
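Where inhibition never reached the appropriate level, the endpoint shown equals the highest concentration tested. Otherwise, values were interpolated linearly from a five-concentration, 48-hour dose response in 96-well plates. The concentration for full growth arrest is given as TGI.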

Key:
Assay in all cases: NCI anticancer screen, dose series, 48 h
[1] = system: HCC-2998 colon
[2] = system: XF 498 CNS
[3] = system: U251 CNS
[4] = system: M14 melanoma
[5] = system: SF-539 CNS
[6] = system: UACC-62 melanoma
[7] = system: COLO 205 colon
[8] = system: A549 NSCLC
[9] = system: OVCAR-5 ovarian
[10] = system: CAKI-1 renal
[11] = system: KM20L2 colon
[12] = system: RXF 393 renal
[13] = system: SK-OV-3 ovarian
[14] = system: UACC-257 melanoma
[15] = system: SN12C renal
[16] = system: HCT-116 colon
[17] = system: SF-295 CNS
[18] = system: LXFL 529 NSCLC
[19] = system: OVCAR-4 ovarian
[20] = system: DMS 273 small cell lung
[21] = system: DLD-1 colon
[22] = system: SK-MEL-2 melanoma
[23] = system: SNB-78 CNS
[24] = system: HOP-92 NSCLC
[25] = system: KM12 colon
[26] = system: NCI-H23 lung
[27] = system: M19-MEL melanoma
[28] = system: TK-10 renal
[29] = system: NCI-H226 lung
[30] = system: SK-MEL-5 melanoma
[31] = system: DMS 114 small cell lung
[32] = system: A498 renal
[33] = system: HL-60(TB) leukemia
[34] = system: 786-0 renal
[35] = system: SNB-19 CNS
[36] = system: EKVX NSCLC
[37] = system: IGROV1 ovarian
[38] = system: CCRF-CEM leukemia
[39] = system: K-562 leukemia
[40] = system: HCT-15 colon
[41] = system: UO-31 renal
[42] = system: SNB-75 CNS
[43] = system: HT29 colon
[44] = system: OVCAR-8 ovarian
[45] = system: SK-MEL-28 melanoma
[46] = system: ACHN renal
[47] = system: SW-620 colon
[48] = system: NCI-H460 lung
[49] = system: OVCAR-3 ovarian
[50] = system: MALME-3M melanoma
[51] = system: HOP-62 NSCLC
[52] = system: NCI-H522 lung
[53] = system: RPMI-8226 leukemia
[54] = system: MOLT-4 leukemia
[55] = system: LOX IMVI melanoma
[56] = system: SF-268 CNS
[57] = system: SR leukemia

O=C(/C=C/c1c(O)ccc2ccccc12)c1ccccc1Cl
TGI [1]: > 100 µM | TGI [2]: 62.2 µM | TGI [3]: > 100 µM | TGI [4]: 34.9 µM | TGI [5]: 80.6 µM | TGI [6]: 29.9 µM | TGI [7]: 31.9 µM | TGI [8]: > 100 µM | TGI [9]: > 100 µM | TGI [10]: > 100 µM | TGI [11]: > 100 µM | TGI [12]: > 100 µM | TGI [13]: > 100 µM | TGI [14]: 46.8 µM | TGI [15]: 86.5 µM | TGI [16]: 61.3 µM | TGI [17]: 73.9 µM | TGI [18]: > 100 µM | TGI [19]: > 100 µM | TGI [20]: > 100 µM | TGI [21]: > 100 µM | TGI [22]: 92.3 µM | TGI [23]: > 100 µM | TGI [24]: 75 µM | TGI [25]: > 100 µM | TGI [26]: 52.2 µM | TGI [27]: 28.3 µM | TGI [28]: > 100 µM | TGI [29]: > 100 µM | TGI [30]: 32.3 µM | TGI [31]: 53.3 µM | TGI [32]: > 100 µM | TGI [33]: 35.1 µM | TGI [34]: > 100 µM | TGI [35]: > 100 µM | TGI [36]: > 100 µM | TGI [37]: > 100 µM | TGI [38]: 50.7 µM | TGI [39]: 53.4 µM | TGI [40]: > 100 µM | TGI [41]: > 100 µM | TGI [42]: > 100 µM | TGI [43]: > 100 µM | TGI [44]: > 100 µM | TGI [45]: 46.9 µM | TGI [46]: > 100 µM | TGI [47]: 57.1 µM | TGI [48]: > 100 µM | TGI [49]: > 100 µM | TGI [50]: 41.5 µM | TGI [51]: > 100 µM | TGI [52]: 90 µM | TGI [53]: > 100 µM | TGI [54]: > 100 µM | TGI [55]: 53.8 µM | TGI [56]: > 100 µM

N#Cc1c2nc3ccccc3nc2n2ccccc12
TGI [1]: > 100 µM | TGI [2]: > 100 µM | TGI [3]: > 100 µM | TGI [4]: > 100 µM | TGI [5]: > 100 µM | TGI [6]: > 100 µM | TGI [7]: > 100 µM | TGI [8]: > 100 µM | TGI [9]: > 100 µM | TGI [10]: > 100 µM | TGI [11]: > 100 µM | TGI [13]: > 100 µM | TGI [14]: > 100 µM | TGI [15]: > 100 µM | TGI [16]: > 100 µM | TGI [18]: > 100 µM | TGI [19]: > 100 µM | TGI [20]: > 100 µM | TGI [21]: > 100 µM | TGI [22]: > 100 µM | TGI [23]: > 100 µM | TGI [25]: > 100 µM | TGI [26]: > 100 µM | TGI [27]: > 100 µM | TGI [28]: > 100 µM | TGI [30]: > 100 µM | TGI [31]: > 100 µM | TGI [32]: > 100 µM | TGI [33]: > 100 µM | TGI [34]: > 100 µM | TGI [35]: > 100 µM | TGI [36]: > 100 µM | TGI [37]: > 100 µM | TGI [38]: > 100 µM | TGI [39]: > 100 µM | TGI [40]: > 100 µM | TGI [41]: > 100 µM | TGI [42]: > 100 µM | TGI [57]: > 100 µM | TGI [44]: > 100 µM | TGI [45]: > 100 µM | TGI [46]: > 100 µM | TGI [47]: > 100 µM | TGI [48]: > 100 µM | TGI [49]: > 100 µM | TGI [50]: > 100 µM | TGI [51]: > 100 µM | TGI [52]: > 100 µM | TGI [53]: > 100 µM | TGI [54]: > 100 µM | TGI [55]: > 100 µM | TGI [56]: > 100 µM

CC1=C(C(=O)Nc2cc(F)c(F)cc2F)C(c2ccc3c(c2)OCO3)C(C(=O)Nc2cc(F)c(F)cc2F)=C(C)N1
TGI [1]: 39 µM | TGI [2]: 26.8 µM | TGI [3]: > 100 µM | TGI [4]: > 100 µM | TGI [5]: 87 µM | TGI [7]: 53.6 µM | TGI [8]: 79.1 µM | TGI [9]: 59.9 µM | TGI [10]: 43.5 µM | TGI [11]: 62.5 µM | TGI [12]: 35.6 µM | TGI [13]: 65.3 µM | TGI [14]: 71.5 µM | TGI [15]: 72.7 µM | TGI [17]: 48.9 µM | TGI [18]: 80.4 µM | TGI [19]: 77.7 µM | TGI [21]: 75.1 µM | TGI [22]: 46.7 µM | TGI [23]: 62.9 µM | TGI [24]: 25 µM | TGI [25]: 46 µM | TGI [26]: 71.1 µM | TGI [27]: 67 µM | TGI [28]: 64.8 µM | TGI [29]: 85.3 µM | TGI [30]: 52.6 µM | TGI [31]: 52.1 µM | TGI [32]: 65.2 µM | TGI [33]: 36 µM | TGI [34]: 42.9 µM | TGI [35]: > 100 µM | TGI [36]: 73.1 µM | TGI [37]: > 100 µM | TGI [38]: 55.1 µM | TGI [39]: 53.8 µM | TGI [41]: 40.8 µM | TGI [42]: 45.4 µM | TGI [43]: 61.4 µM | TGI [44]: > 100 µM | TGI [45]: > 100 µM | TGI [46]: 60.6 µM | TGI [47]: > 100 µM | TGI [48]: 78.7 µM | TGI [49]: 40.6 µM | TGI [50]: 69.4 µM | TGI [51]: 65.1 µM | TGI [52]: 41.6 µM | TGI [53]: 52.9 µM | TGI [54]: 46.5 µM | TGI [55]: 35.3 µM | TGI [56]: > 100 µM
